Test results published in article PMC9458058, “Synthesis of N-Substituted Iminosugar C-Glycosides and Evaluation as Promising α-Glucosidase Inhibitors” (Molecules, 2022).
Like-named read-outs stand apart in the source and are kept apart here.

Experiments:
[1] = target: α-glucosidase from yeast (Saccharomyces cerevisiae, UniProt P53341); test: biochemical; assay type: biochemical; details: for inhibition of α-glucosidase, in words: Figure 3, 1 µg/mL, relative to lead compound 4 / Acarbose; for inhibition potency compared with compound 5λ, in words: Table 2
Description: The inhibitory potency of the synthesized N-substituted iminosugar C-glycosides 5 was assessed by testing the compounds in assays for the α-glucosidase from yeast. […] Alternatively, N atom was modified with various benzaldehydes, giving a library of iminosugar C-glycosides containing phenyl.
The extracts of each sample were dissolved in distilled water to prepare a certain concentration. 150 µL of the sample solution was mixed with 150 µL of maltose solution (prepared with 0.2 M, pH = 6.8 phosphate buffer) at a certain concentration, and cultured at 37 °C for 10 min. Then 150 µL of the enzyme solution at a certain concentration was added and mixed. The reaction was carried out at 37 °C for 60 min. The reaction was terminated in a boiling water bath for 10 min and centrifuged at 3000 r/min for 10 min. The supernatant was taken to determine the content of glucose with Glu kit. […] Enzyme activity inhibition rate (%) = (negative-sample)/(negative-blank) × 100%.

[2] = target: α-glucosidase (Saccharomyces cerevisiae, UniProt P53341); test: Enzyme kinetics experiment (ultrafiltration recovery, Lineweaver-Burk plots); assay type: biochemical
Text: To determine which mechanism 6e belonged to, we removed the unreacted inhibitor from the enzyme solution by ultrafiltration, and examined whether the activity would be recovered or not by the method described in the literatures. When an enzyme solution containing 6e was subjected to ultrafiltration and then redissolved with the same concentration, the α-glucosidase activity was substantially recovered (Figure 5A).
Further analysis of the compound 6e, in order to reveal the type of enzyme inhibition on α-glucosidase, was done with different substrate concentration.
Enzyme kinetics experiment: The principle of the experimental method is the same as that of the above method, in which the micro-membrane centrifuge tube with a pore diameter of 3K is used for small molecule centrifugal separation. In the enzyme kinetics experiment, the concentration of enzyme was set at a fixed concentration, and five concentration gradients were designed for the solution of substrate maltose. The linear relationship was plotted using the obtained results combined with the Michaelis-Menten equation.

[3] = read-out: IC50 against α-glucosidase from yeast

α-glucosidase from yeast, sequence (P53341 whole entry): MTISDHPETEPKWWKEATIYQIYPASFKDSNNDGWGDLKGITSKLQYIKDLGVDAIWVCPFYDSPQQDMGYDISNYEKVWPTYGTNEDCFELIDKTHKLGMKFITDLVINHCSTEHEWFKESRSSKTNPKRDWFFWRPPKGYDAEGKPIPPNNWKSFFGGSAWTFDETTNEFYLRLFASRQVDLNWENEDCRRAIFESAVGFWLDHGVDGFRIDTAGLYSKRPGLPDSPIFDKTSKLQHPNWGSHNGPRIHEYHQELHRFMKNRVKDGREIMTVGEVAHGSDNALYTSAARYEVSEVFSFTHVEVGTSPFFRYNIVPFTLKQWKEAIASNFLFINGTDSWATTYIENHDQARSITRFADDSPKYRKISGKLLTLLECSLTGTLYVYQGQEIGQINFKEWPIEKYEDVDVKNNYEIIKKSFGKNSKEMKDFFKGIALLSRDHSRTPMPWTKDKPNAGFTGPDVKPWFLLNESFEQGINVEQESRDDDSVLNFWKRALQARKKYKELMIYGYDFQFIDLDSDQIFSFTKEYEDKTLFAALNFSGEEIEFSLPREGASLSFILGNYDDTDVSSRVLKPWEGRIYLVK
α-glucosidase, sequence (P53341 whole entry): as above

Compound: CC(=O)C[C@H]1NC[C@@H](O)[C@@H](O)[C@H]1O [Compound 4, 1-C-Acetylmethyl-5-deoxy-5-amino-α-D-ribopyranoside]
- IC50 [1]: > 20 µM
- inhibition of α-glucosidase, in words [1]: weak inhibitory activity

Compound: CCCN1C[C@@H](O)[C@@H](O)[C@@H](O)[C@H]1CC(C)=O [Compound 5a, (1R, 2S, 3R, 4R)-1-Acetylmethyl-2,3,4-trihydroxyl-N-n-propylpiperidine]
- inhibition of α-glucosidase, in words [1]: no improvement of α-glucosidase inhibition

Compound: CC(=O)CC1C(O)C(O)C(O)CN1Cc1ccc(C)cc1 [Compound 5j, (1R, 2S, 3R, 4R)-1-Acetylmethyl-2,3,4-trihydroxyl-N-4-methylbenzylpiperidine]
- inhibition of α-glucosidase, in words [1]: The same result was obtained

Compound: CC(=O)CC1C(O)C(O)C(O)CN1Cc1cccc(C)c1 [Compound 5k, (1R, 2S, 3R, 4R)-1-Acetylmethyl-2,3,4-trihydroxyl-N-3-methylbenzylpiperidine]
- inhibition of α-glucosidase, in words [1]: The same result was obtained

Compound: CC(=O)CC1C(O)C(O)C(O)CN1Cc1ccc(C(F)(F)F)cc1 [Compound 5l, (1R, 2S, 3R, 4R)-1-Acetylmethyl-2,3,4-trihydroxyl-N-4-trifluoromethylbenzylpiperidine]
- inhibition of α-glucosidase, in words [1]: The same result was obtained

Compound: CC(=O)CC1C(O)C(O)C(O)CN1Cc1ccc(C#N)cc1 [Compound 5m, (1R, 2S, 3R, 4R)-1-Acetylmethyl-2,3,4-trihydroxyl-N-4-cyanobenzylpiperidine]
- inhibition of α-glucosidase, in words [1]: The same result was obtained

Compound: CC(=O)CC1C(O)C(O)C(O)CN1Cc1ccc([N+](=O)[O-])cc1 [Compound 5n, (1R, 2S, 3R, 4R)-1-Acetylmethyl-2,3,4-trihydroxyl-N-4-nitrobenzylpiperidine]
- inhibition of α-glucosidase, in words [1]: The same result was obtained

Compound: COc1ccc(CN2C[C@@H](O)[C@@H](O)[C@@H](O)[C@H]2CC(C)=O)cc1 [Compound 5o, (1R, 2S, 3R, 4R)-1-Acetylmethyl-2,3,4-trihydroxyl-N-4-methoxylbenzylpiperidine]
- inhibition of α-glucosidase, in words [1]: The same result was obtained

Compound: COc1cccc(CN2C[C@@H](O)[C@@H](O)[C@@H](O)[C@H]2CC(C)=O)c1 [Compound 5p, (1R, 2S, 3R, 4R)-1-Acetylmethyl-2,3,4-trihydroxyl-N-3-methoxylbenzylpiperidine]
- inhibition of α-glucosidase, in words [1]: The same result was obtained

Compound: CC(=O)CC1C(O)C(O)C(O)CN1Cc1ccc(Cl)cc1 [Compound 5q, (1R, 2S, 3R, 4R)-1-Acetylmethyl-2,3,4-trihydroxyl-N-4-chlorobenzylpiperidine]
- inhibition of α-glucosidase, in words [1]: doesn’t show any significant improvement

Compound: CC(=O)CC1C(O)C(O)C(O)CN1Cc1ccccc1Cl [Compound 5r, (1R, 2S, 3R, 4R)-1-Acetylmethyl-2,3,4-trihydroxyl-N-2-chlorobenzylpiperidine]
- IC50 [1]: 12 µM
- inhibition of α-glucosidase, in words [1]: enhanced the enzyme inhibition

Compound: CC(=O)CC1C(O)C(O)C(O)CN1Cc1cccc(Cl)c1 [Compound 5t, (1R, 2S, 3R, 4R)-1-Acetylmethyl-2,3,4-trihydroxyl-N-3-chlorobenzylpiperidine]
- inhibition of α-glucosidase, in words [1]: doesn’t show any significant improvement

Compound: CC(=O)CC1C(O)C(O)C(O)CN1Cc1ccc(Br)cc1 [Compound 5u, (1R, 2S, 3R, 4R)-1-Acetylmethyl-2,3,4-trihydroxyl-N-4-bromobenzylpiperidine]
- inhibition of α-glucosidase, in words [1]: doesn’t show any significant improvement

Compound: CC(=O)CC1C(O)C(O)C(O)CN1Cc1ccccc1Br [Compound 5v, (1R, 2S, 3R, 4R)-1-Acetylmethyl-2,3,4-trihydroxyl-N-2-bromobenzylpiperidine]
- inhibition of α-glucosidase, in words [1]: enhanced the enzyme inhibition

Compound: CC(=O)CC1C(O)C(O)C(O)CN1Cc1cccc(Br)c1 [Compound 5w, (1R, 2S, 3R, 4R)-1-Acetylmethyl-2,3,4-trihydroxyl-N-3-bromobenzylpiperidine]
- inhibition of α-glucosidase, in words [1]: doesn’t show any significant improvement

Compound: CC(=O)CC1C(O)C(O)C(O)CN1Cc1ccc(F)cc1 [Compound 5x, (1R, 2S, 3R, 4R)-1-Acetylmethyl-2,3,4-trihydroxyl-N-4-fluorobenzylpiperidine]
- inhibition of α-glucosidase, in words [1]: doesn’t show any significant improvement

Compound: CC(=O)CC1C(O)C(O)C(O)CN1Cc1ccccc1F [Compound 5y, (1R, 2S, 3R, 4R)-1-Acetylmethyl-2,3,4-trihydroxyl-N-2-fluorobenzylpiperidine]
- inhibition of α-glucosidase, in words [1]: doesn’t show any significant improvement

Compound: CC(=O)CC1C(O)C(O)C(O)CN1Cc1cccc(F)c1 [Compound 5z, (1R, 2S, 3R, 4R)-1-Acetylmethyl-2,3,4-trihydroxyl-N-3-fluorobenzylpiperidine]
- inhibition of α-glucosidase, in words [1]: doesn’t show any significant improvement

Compound: CC(=O)CC1C(O)C(O)C(O)CN1Cc1ccccc1O [Compound 5θ, (1R, 2S, 3R, 4R)-1-Acetylmethyl-2,3,4-trihydroxyl-N-2-hydroxylbenzylpiperidine]
- IC50 [1]: > 20 µM
- inhibition of α-glucosidase, in words [1]: reduced the inhibitory potency significantly

Compound: CC(=O)CC1C(O)C(O)C(O)CN1Cc1ccc(O)cc1 [Compound 5λ, (1R, 2S, 3R, 4R)-1-Acetylmethyl-2,3,4-trihydroxyl-N-4-hydroxylbenzylpiperidine]
- IC50 [1]: 7.4 µM
- inhibition of α-glucosidase, in words [1]: improved the enzyme inhibition

Compound: CC(=O)CC1C(O)C(O)C(O)CN1Cc1cccc(O)c1 [Compound 5π, (1R, 2S, 3R, 4R)-1-Acetylmethyl-2,3,4-trihydroxyl-N-3-hydroxylbenzylpiperidine]
- IC50 [1]: > 20 µM
- inhibition of α-glucosidase, in words [1]: reduced the inhibitory potency significantly

Compound: CC(=O)C[C@@H]1[C@H](O)[C@H](O)[C@H](O)CN1Cc1ccc(O)c(Cl)c1 [Compound 6a, (1R, 2S, 3R, 4R)-1-Acetylmethyl-2,3,4-trihydroxyl-N-3-chloro-4-hydroxylbenzylpiperidine]
- inhibition potency compared with compound 5λ, in words [1]: slightly improve the inhibition potency
- IC50 [1, 3]: 5.6 µM

Compound: CC(=O)C[C@@H]1[C@H](O)[C@H](O)[C@H](O)CN1Cc1ccc(O)c(Br)c1 [Compound 6b, (1R, 2S, 3R, 4R)-1-Acetylmethyl-2,3,4-trihydroxyl-N-3-bromo-4-hydroxylbenzylpiperidine]
- inhibition potency compared with compound 5λ, in words [1]: slightly improve the inhibition potency
- IC50 [1, 3]: 5.3 µM

Compound: CC(=O)C[C@@H]1[C@H](O)[C@H](O)[C@H](O)CN1Cc1ccc(O)c(F)c1 [Compound 6c, (1R, 2S, 3R, 4R)-1-Acetylmethyl-2,3,4-trihydroxyl-N-3-fluoro-4-hydroxylbenzylpiperidine]
- inhibition potency compared with compound 5λ, in words [1]: slightly improve the inhibition potency
- IC50 [1, 3]: 3.3 µM

Compound: CC(=O)C[C@@H]1[C@H](O)[C@H](O)[C@H](O)CN1Cc1ccc(O)cc1Cl [Compound 6d, (1R, 2S, 3R, 4R)-1-Acetylmethyl-2,3,4-trihydroxyl-N-2-chloro-4-hydroxylbenzylpiperidine]
- inhibition compared with positive control Acarbose, in words [1]: equivalent to positive control Acarbose
- IC50 [1, 3]: 2.4 µM

Compound: CC(=O)C[C@@H]1[C@H](O)[C@H](O)[C@H](O)CN1Cc1c(Cl)cc(O)cc1Cl [Compound 6e, (1R, 2S, 3R, 4R)-1-Acetylmethyl-2,3,4-trihydroxyl-N-2,6-dichloro-4-hydroxylbenzylpiperidine]
- type of enzyme inhibition ([2]; Lineweaver-Burk plots): uncompetitive inhibitor
- Ki ([2]; Lineweaver-Burk plots, different substrate concentration): 8.6 µM
- reversibility of inhibition ([2]; enzyme activity after removal of inhibitor by ultrafiltration): reversible inhibitor
- inhibition compared with positive control Acarbose, in words [1]: stronger inhibitory potency than positive control Acarbose
- inhibitory potency relative to positive control Acarbose [1]: 2 fold
- IC50 [1, 3]: 0.9 µM

Compound: COc1cc(CN2C[C@@H](O)[C@@H](O)[C@@H](O)[C@H]2CC(C)=O)ccc1O [Compound 6f, (1R, 2S, 3R, 4R)-1-Acetylmethyl-2,3,4-trihydroxyl-N-4-hydroxyl-methoxylbenzylpiperidine]
- IC50 [1]: > 20 µM
- inhibition potency compared with compound 5λ, in words [1]: severely diminishes the inhibition

Compound: CCOc1cc(CN2C[C@@H](O)[C@@H](O)[C@@H](O)[C@H]2CC(C)=O)ccc1O [Compound 6g, (1R, 2S, 3R, 4R)-1-Acetylmethyl-2,3,4-trihydroxyl-N-3-ethyoxyl-4-hydroxylbenzylpiperidine]
- IC50 [1]: > 20 µM
- inhibition potency compared with compound 5λ, in words [1]: severely diminishes the inhibition

Compound: COc1ccc(CN2C[C@@H](O)[C@@H](O)[C@@H](O)[C@H]2CC(C)=O)cc1O [Compound 6h, (1R, 2S, 3R, 4R)-1-Acetylmethyl-2,3,4-trihydroxyl-N-3-hydroxyl-4-methoxylbenzylpiperidine]
- IC50 [1]: > 20 µM

Compound: CC(=O)C[C@@H]1[C@H](O)[C@H](O)[C@H](O)CN1Cc1cc(Br)c(O)c(Br)c1 [Compound 6i, (1R, 2S, 3R, 4R)-1-Acetylmethyl-2,3,4-trihydroxyl-N-3,5-dibromo-4-hydroxylbenzylpiperidine]
- inhibition potency compared with compound 5λ, in words [1]: slightly improve the inhibition potency
- IC50 [1, 3]: 5.5 µM
